Patent US8415285B2, “Composition for the prevention or removal of insoluble salt deposits” (Ecover Coordination Center N.V., priority 2010, dated 2013)
Where two headings read alike, the source gives them in different places. Blank lines part the entries; values can stand above or below the molecule they belong to.

How the values were obtained:
[1] = labeling according to EU legislation; cited from earlier work
[2] = Descaling efficiency upon prolonged contact, weight loss of immersed marble blocks (IPP protocol); conditions: Example 3, 5% solution
[3] = Descaling efficiency upon short exposure, weight loss of marble plates (IKW protocol); conditions: for Average weight loss (g), plates: Example 1, 5% active matter acid solution, 10 seconds immersion + 10 minutes, five plates; for Weight difference plates: Example 3, short contact; for Weight loss plates: Example 4, acid levels 0, 1.5 or 3, solutions prepared 20 hours prior
Description: SÖFW-journal, 120, Jahrgang 13:94) for their descaling efficiency upon short exposure.
For each product, five oven-dry marble plates (Carrara marble, 75×150×5 mm, bought at Van Houten Malle) are weighted on a high precision balance and subsequently completely immersed during 10 seconds in a glass beaker holding 950 milliliter of a 5% active matter acid solution. The plates are then removed from the liquor, and put in upright position for 10 minutes during which the acid is allowed for further action. […] The weight loss due to the exposure to the acid is used as a measure for its descaling performance.
(§1) Solutions were allowed to stand until complete dissolution of the lactide before the descaling test was started.
(§2) The required volumes for filling the beakers were prepared as 3% active matter solutions, 20 hours prior to the test.

[4] = Descaling efficiency upon prolonged contact, weight loss of immersed marble blocks (IPP protocol); conditions: for Average weight loss (g), blocks: Example 2, 24 hours immersion in the acid solution, duplicate; for Weight loss blocks: Example 4, acid levels 0, 1.5 or 3
Description: as §1, §2

[5] = Dissolution and pH development of lactide in water; assay type: physicochemical
Source text: Slow-release lactide is commercially available from the company Galactic, Belgium.

[6] = cited from earlier work
[7] = footnote b: as % anhydrous at 25° C.; cited from earlier work
[8] = cited from earlier work; remark: listed apart in the source

Compound: CC(=O)O [Acetic]
label [1]: C, Xn

Compound: O=C(O)CC(O)(CC(=O)O)C(=O)O [Citric acid]
Weight difference blocks [2]: 3.3186 g
Average weight loss (g), plates [3]: 0.105 g
Weight difference plates ([3]; 5% solution): 0.0782 g
Weight loss plates [3]: 0.05778 g
Average weight loss (g), blocks [4]: 3.8461 g
Weight loss blocks ([4]; prolonged contact): 2.2648 g

Compound: O=C(O)CO [Glycolic acid]
Average weight loss (g), plates [3]: 0.1629 g
Weight loss plates [3]: 0.1115 g
Average weight loss (g), blocks [4]: 2.629 g
Weight loss blocks ([4]; prolonged contact): 4.2873 g
label [1]: C, Xn

Compound: CC(O)C(=O)O (stereo not drawn) [Lactic acid]
Average weight loss (g), plates [3]: 0.1278 g
Weight loss plates [3]: 0.09616 g
Average weight loss (g), blocks [4]: 9.06 g
Weight loss blocks ([4]; prolonged contact): 5.2176 g
label [1]: Xi

Time for complete dissolution ([5]; room temperature, while stirring): at least 3 hours
Compound: CC1OC(=O)C(C)OC1=O (stereo not drawn) [Lactide, 3,6-Dimethyl-1,4-dioxane-2,5-dione]
Weight difference blocks [2]: 6.0445 g
Weight difference plates ([3]; 3% solution): 0.1129 g
Weight difference plates ([3]; 5% solution): 0.1365 g
Weight difference blocks ([4]; Example 3, 3% solution, prolonged contact): 2.9844 g
Solubility water 20° C. ([6]; pH 7, 20° C.): Insol.^a
label [1]: Xi

Compound: O=C(O)CC(O)C(=O)O (stereo not drawn) [Malic acid]
Average weight loss (g), plates [3]: 0.1457 g
Average weight loss (g), blocks [4]: 8.735 g
Solubility calcium salt as % anhydrous at 25° C. [7]: 0.8%^b
Solubility water 20° C. ([6]; pH 7, 20° C.): >80%
label [1]: Xn

Compound: O=C(O)CCC(=O)O [Succinic acid]
Weight difference blocks [2]: 7.2479 g
Average weight loss (g), plates [3]: 0.1376 g
Weight difference plates ([3]; 5% solution): 0.0899 g
Weight loss plates [3]: 0.08734 g
Average weight loss (g), blocks [4]: 9.304 g
Weight loss blocks ([4]; prolonged contact): 4.705 g
label [1]: C, Xn

Compound: O=CO [formic]
label [1]: C, Xn

Compound: O=C(O)/C=C/C(=O)O [fumaric]
Solubility water 20° C. ([6]; pH 7): 64%

Compound: O=C(O)[C@H](O)[C@@H](O)[C@H](O)[C@H](O)CO [gluconic]
Solubility water 20° C. ([6]; pH 7): >50%
label [1]: Xn

Compound: O=C(O)CCCC(=O)O [glutaric]
Solubility water 20° C. ([6]; pH 7, 20° C.): 50%
label [1]: Xi

Compound: O=C(O)/C=C\C(=O)O [maleic]
Solubility water 20° C. ([6]; pH 7): >40%

Compound: O=C(O)CC(=O)O [malonic]
label [1]: Xn

Compound: O=C(O)C(=O)O [oxalic]
label [1]: C, Xn

pH of 0.1 w/v % solution after 5 minutes ([5]; demineralized water, 25° C., 5 minutes): 3.7
pH of 0.1 w/v % solution after 10 minutes ([5]; demineralized water, 25° C., 10 minutes): 3.2
pH of 0.1 w/v % solution after 120 minutes ([5]; demineralized water, 25° C., 120 minutes): 2.5
Compound: CC1OC(=O)C(C)OC1=O (stereo not drawn) [slow-release lactide]

Compound: NS(=O)(=O)O [sulfamic]
pKa (first value) [8]: 0.1
label [1]: C, Xn, N

Compound: O=S(=O)(O)O [sulfuric]
label [1]: C, T
